Laboratory results taken from patent US10851092B2, “Pyridine compound” (Daiichi Sankyo Company, Limited, priority 2016, dated 2020).
Like-named read-outs stand apart in the source and are kept apart here.

Legend:
[1] = target: RET-V804L (Homo sapiens (Human), UniProt P07949, V804L); experiment: Evaluation of RET kinase inhibiting activity (cell system), Ba/F3 cells overexpressing RET (V804L) mutant; assay type: cell-based; conditions: Ba/F3, compound 2 hours
Protocol: (§1) Thereafter, 1 mL of Cell Lysis Buffer (Cell signaling technology, #9803), a single tablet of Phosphatase inhibitor (Roche, #04906837001), and a single tablet of Protease inhibitor (Roche, #0469312400) were added to 9 mL of MilliQ, and 20 ul of the obtained mixture was then added to each well. The mixture thus obtained was placed on ice for 20 minutes, so that the cells were lysed. A 5-ul aliquot was taken from the cell lysate, and thereafter, 64 nl of Myc antibody (Cell signaling technology, #3946) and Streptavidin Donor beads in an equal amount of 102 nl of P-Tyr-100 Acceptor beads included in the Alpha Screen Phosphotyrosine (P-Tyr-100) assay kit (Perkin Elmer, #6760620C) were added to the aliquot in accordance with the instruction manual included with the aforementioned assay kit. The obtained mixture was reacted at room temperature overnight, and a RET kinase inhibiting activity rate was then measured using Envision.

[2] = target: RET-Gatekeeper mutation (V804L) recombinant protein (Homo sapiens (Human), UniProt P07949, V804L); experiment: Evaluation of RET kinase inhibiting activity (cell-free system), gatekeeper mutant; assay type: biochemical
Sequence of RET-Gatekeeper mutation (V804L) recombinant protein (P07949 29-1114 V804L): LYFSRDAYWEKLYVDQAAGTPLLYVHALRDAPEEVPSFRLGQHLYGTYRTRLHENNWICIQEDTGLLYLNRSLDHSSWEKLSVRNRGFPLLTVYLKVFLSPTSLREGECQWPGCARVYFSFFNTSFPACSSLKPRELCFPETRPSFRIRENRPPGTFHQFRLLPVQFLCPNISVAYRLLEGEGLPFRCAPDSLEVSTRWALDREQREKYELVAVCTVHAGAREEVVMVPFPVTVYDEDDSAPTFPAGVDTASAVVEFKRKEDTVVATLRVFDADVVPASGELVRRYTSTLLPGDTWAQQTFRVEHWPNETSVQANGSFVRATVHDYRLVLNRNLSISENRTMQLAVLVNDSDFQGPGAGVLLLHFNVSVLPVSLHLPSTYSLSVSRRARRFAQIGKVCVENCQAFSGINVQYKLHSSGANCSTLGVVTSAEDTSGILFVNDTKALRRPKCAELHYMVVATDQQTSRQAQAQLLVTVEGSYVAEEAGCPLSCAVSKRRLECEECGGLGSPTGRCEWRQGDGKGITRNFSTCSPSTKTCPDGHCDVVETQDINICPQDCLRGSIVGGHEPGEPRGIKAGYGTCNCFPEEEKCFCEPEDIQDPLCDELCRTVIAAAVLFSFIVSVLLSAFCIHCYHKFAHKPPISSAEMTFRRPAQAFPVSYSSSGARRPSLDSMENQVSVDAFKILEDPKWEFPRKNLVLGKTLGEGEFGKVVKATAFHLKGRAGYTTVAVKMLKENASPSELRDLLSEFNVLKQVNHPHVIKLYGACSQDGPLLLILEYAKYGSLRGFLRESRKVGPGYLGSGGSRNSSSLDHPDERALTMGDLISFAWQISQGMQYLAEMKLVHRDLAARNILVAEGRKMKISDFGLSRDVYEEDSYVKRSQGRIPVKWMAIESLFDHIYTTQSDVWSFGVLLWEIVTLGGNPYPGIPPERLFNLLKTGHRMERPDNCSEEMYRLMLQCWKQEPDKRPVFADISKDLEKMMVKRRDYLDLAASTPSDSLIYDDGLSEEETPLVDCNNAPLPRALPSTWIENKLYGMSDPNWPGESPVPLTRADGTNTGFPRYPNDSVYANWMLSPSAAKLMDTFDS
Protocol: (§2) 19 uL of the RET kinase solution was added to each of lines A to P of a 384-well plate, and thereafter, the test compound at each concentration was added to lines C to N, and further, 1 uL of dimethyl sulfoxide (hereinafter referred to as DMSO) was added to each of lines A, B, O and P. Thereafter, the obtained mixtures were each preincubated at room temperature for 20 minutes. Furthermore, a substrate solution A containing ATP (final concentration: 1 mM) and a substrate solution B containing no ATP, both in addition to a reaction buffer and FL-Peptide 22 (PerkinElmer, #760366, final concentration: 1.5 uM) were produced. The substrate solution A was added in an amount of 5 uL to lines B to 0, whereas the substrate solution B was added in an amount of 5 uL to lines A and P. The obtained mixtures were each incubated at 28° C. for 45 minutes. A reaction termination solution (100 mM HEPES (pH 7.4), 0.015% Briji-35, 40 mM EDTA, and 0.1% Coating Reagent 3) was added in an amount of 40 ul to the reaction mixture, so as to terminate the reaction.
(§3) Using EZ Reader II (Perkin Elmer), a substrate peptide was separated from a phosphorylated peptide in the reaction solution, and the product ratio (P/(P+S)) calculated from the peak (S) of the substrate peptide and the peak (P) of the phosphorylated peptide was used for evaluation. The inhibition of the test compound having each concentration was obtained by the following formula (automatically calculated using the software of EZ Reader II System). Inhibition (%)=100×(1−Ci/Co) (a) Ci: Conversion rate of a reaction of a test compound with substrate solution A−conversion rate of a reaction of DMSO with substrate solution B Co: Conversion rate of a reaction of DMSO with substrate solution A−conversion rate of a reaction of DMSO with substrate solution B
(§4) Based on the inhibition rates of the test compound at 12 different concentrations according to the formula (a), a 4-parameter logistic regression curve was drawn. At this time, the 4-parameter logistic regression equation is expressed as follows. Inhibition (%)=Bottom+(Top−Bottom)/(1+(X/IC50)^^slope) (b) Top: Upward asymptote Slope: Slope parameter IC50: Value X of (Top+Bottom)/2 Bottom: Downward asymptote X: Concentration of test compound
(§5) First, any given initial values are inputted into Top, Slope, IC50, Bottom (Top=100, Slope=−1, IC50=approx. IC50, and Bottom=0), so that a regression curve was drawn. Subsequently, a least-squares method was executed to the sum of squares of a difference between the measured value and the estimated value obtained from formula (b) to calculate the coefficient of the 4-parameter logistic regression equation, so as to calculate IC50.

[3] = system: phosphorylated RET (ETV-RET) in Ba/F3-RET tumors; experiment: One shot PKPD analysis, Ba/F3-RET tumors; assay type: in vivo, mice
Protocol: Murine pro-B cells, Ba/F3, expressing fusion protein of ets variant 6 (ETV)-RET and ETV-RET-V804L were constructed by Daiichi Sankyo RD Novare Co., Ltd., and cultivated in RPM11640 medium (Thermo Fisher Scientific K.K.) supplemented with 10% (v/v) heat-inactivated fetal bovine serum (FBS, GE Healthcare) and 1.5 µg/mL puromycin in a CO2 incubator that was set at 37° C. with a 5% CO2 atmosphere. The cells were suspended in DPBS and inoculated subcutaneously into mice at 1.0×10^7 cells per mouse. After the tumor had reached a size of 100 to 200 mm^3, the mice were randomized based on tumor diameter and the test compounds (10 mg/kg, Compound 229 or Example 3) which were dissolved in 1% (w/v) hydroxypropyl methylcellulose solution were administrated orally. Control group was administrated with 1% (w/v) hydroxypropyl methylcellulose solution. […] Protein concentration of tumor lysate was quantified by colorimetric reagent (Thermo Fisher Scientific K.K.) and all were diluted to the same concentration by lysis buffer. […] The chemiluminescence reaction of HRP and the substrate (Pierce ECL Plus Western Blotting Substrate, Cat. No. 32132, Thermo Fisher Scientific K.K.) was detected by an image scanner Typhoon 9400 (GE Healthcare). Signal intensities fo phosphorylated RET (pRET) and RET were quantified and calculated as following methods. […]

[4] = target: RET-wild type (Homo sapiens (Human), UniProt P07949); experiment: Evaluation of RET kinase inhibiting activity (cell system), Ba/F3 cells overexpressing Myc tagged RET; assay type: cell-based; conditions: Ba/F3, compound 2 hours, read-out: RET-wild type IC50
Sequence of RET-wild type (P07949 29-1114): as the sequence (P07949 29-1114 V804L) above, with L776V counted along it
Protocol: as §1

[5] = target: RET recombinant protein (RET-wild type) (Homo sapiens (Human), UniProt P07949); experiment: Evaluation of RET kinase inhibiting activity (cell-free system), mobility shift assay; assay type: biochemical
Sequence of RET recombinant protein (RET-wild type) (P07949 29-1114): as the sequence (P07949 29-1114 V804L) above, with L776V counted along it
Protocol: as §2, §3, §4, §5

Sequence of RET-V804L (P07949 29-1114 V804L): as the sequence (P07949 29-1114 V804L) above

Q: Which IC50 [1] does the source give for `COc1cc2cc(-c3ccc(CC(=O)Nc4cc(C(C)(C)C(F)(F)F)no4)cn3)cnc2cc1OC` [Example 3, 2-[6-(6,7-Dimethoxyquinolin-3-yl)pyridin-3-yl]-N-[3-(1,1,1-trifluoro-2-methylpropan-2-yl)-1,2-oxazol-5-yl]acetamide] here?
A: 15 nM

Q: What about the IC50 ([2]; cell-free system, ATP 1 mM, read-out: RET-V804L IC50) of the same compound?
A: 6.3 nM

Q: What about the IC50 ([2]; non-cell system, read-out: Biochemical assay (non-cell system) IC50 (nM) RET-V804L) of the same compound?
A: 6.3 nM

Q: What about the “inhibition of pRET in Ba/F3-RET tumors” value ([3]; 10 mg/kg oral) of the same compound?
A: clearly inhibited

Q: And the “Relative phosphorylation of RET (%) in Ba/F3-RET tumors” value ([3]; Dose: 10 mg/kg oral, six hours after administration, relative to vehicle)?
A: 6%

Q: And the IC50 [4]?
A: 4 nM

Q: What about the IC50 ([5]; cell-free system, ATP 1 mM, read-out: RET-wild type IC50) of the same compound?
A: 4.6 nM

Q: What about the IC50 ([5]; non-cell system, read-out: Biochemical assay (non-cell system) IC50 (nM) RET-WT) of the same compound?
A: 4.6 nM
